Test results: patent US20120180807A1, “Method for Chemically Modifying the Internal Region of a Hair Shaft” (priority 2011, published 2012)

Assay: Water solubility / dissolving of monomer and polymer (other in-vitro-experiments)
Format: physicochemical
Text: However, dissolving polymer, once it had been dried, takes considerably longer (some hours) than dissolving dry monomer (some seconds). […] All the 20 hair fibres of each sample without H2O2 pre-treatment lost their radioactivity of the cuticle area by washing, whereas all the other samples kept it.

## C=CC(=O)OCCCS(=O)(=O)O [3-SPA, 3-sulfopropylacrylate]
  water solubility: water soluble
Dry / once dried material
  time for dissolving in water: some seconds
